Test system: chicken Red Blood cells (RBC)
Test: QS21 lytic activity, haemolysis assay (limit test)
Type: cell-based
Conditions: example QS21 curve, 150 mM sodium chloride buffer; OD 0.12
Protocol: QS21 is known to lyse red blood cells (RBC).
QS21 lytic activity was measured by a haemolysis assay using chicken Red Blood cells (RBC). RBC were centrifuged at 550 g at 4° C. Supernatant was discarded. The pellet was carefully resuspended in PBS buffer to reach the initial volume and the same operation was repeated until supernatant was no longer red (generally 3 times). The pellet was stored at 4° C. for 3 to 4 days maximum if not used directly (and washed again the day it is used) or was diluted around 10 times in buffer if used the same day.
A QS21 dose range curve was prepared in ASA buffer (in salt or in sorbitol buffer following the ASA sample tested) extemporaneously and the adjuvant samples (containing a 50 μg or 90 μg equivalent of QS21 meaning the equivalent of 500 μl or 900 μl ASA) were prepared. Final volume was adjusted to 900 μl in standards and samples with adequate buffer (containing or not sorbitol as a function of the buffer of the sample tested). Due to its opalescence, ASA interferes in optical density (OD). […] Optical density at 540 nm was measured after centrifugation. […]
1. Limit of detection (LOD) was defined as the lowest concentration of QS21 leading to an OD: • Higher than the base level (OD>0.1) • Around three times higher than OD's buffer (the “o μg” QS21) • In the ascendant part of the curve • Determined for each test. […]

QS21
Limit of Detection (lowest QS21 amount giving lytic OD): 0.9 µg

Reference: US20180021417A1, “ADJUVANT COMPOSITIONS COMPRISING A NON-IONIC ISOTONICITY AGENT” (GLAXOSMITHKLINE BIOLOGICALS, SA, priority 2009, published 2018)
